# Source: patent US20250276960A1, “CRYSTALLINE FORMS OF (R)-6-CHLORO-3-((1-(2-CYANO-7-METHYL-3-MORPHOLINOQUINOXALIN-5-YL)ETHYL)AMINO)PICOLINIC ACID” (MIRATI THERAPEUTICS, INC., priority 2024, published 2025)
# Legend:
# [1] = Solubility of amorphous solids of Compound 1 in single solvents at room temperature; format: physicochemical
# Method: The amorphous solids of Compound 1 as prepared in Example 1 was measured in 20 single solvents at room temperature and crystallization screening was then conducted in the same set of solvents. For each solvent tested, a slurry of the amorphous solids and the solvent was prepared with a […] and the amorphous solids were allowed to dissolve. The slurry was then agitated with a stir bar for approximately 1 hour at room temperature. The wet solids were then analyzed by powder X-ray diffraction (PXRD). The solids were collected and dried under vacuum for 1 day and the crystalline form was confirmed by PXRD. Only one crystalline form was obtained and designated as Form 1.
# [2] = system: T47D (H1047R mutant) cells; assay: CellTiter-Glo 2.0 cell viability assay, T47D; format: cell-based; settings: Homo sapiens, 72 hours, CTG
# Method: (§1) The ability of a Compound 1 to inhibit the formation of pAKT was measured using alphaLISA Surefire Ultra AKT 1/2/3 (pS473) Assay Kit (#ALSU-PAKT-B50K) was obtained from Perkin Elmer (Waltham, MA). The ability of Compound 1 to decrease the viability of cells was measured using CellTiter-Glo 2.0 (CTG) Luminescent Cell Viability Assay (#G9241) obtained from Promega (Madison, WI).
# To prepare assay plates for viability assays, cells were trypsinized, resuspended in fresh media, and viable cells were counted utilizing trypan blue exclusion. […]
# Assay day 1, cells were dosed using an Echo Liquid Handler (Beckman Coulter) with compounds at a 10 μm starting concentration and serially diluted (1:4) for a total of 10concentrations. […] After 72 hours of treatment, cell plates were equilibrated to room temperature before adding 15 μl of CTG to each well, plates were then covered in aluminum foil to protect from light, incubated at room temperature for 30 minutes on a microtiter plate shaker, and luminescence readings were collected using a CLARIOstar microplate reader (BMG Labtech, Germany). Percent of vehicle control values were plotted as log (inhibitor) vs. response-Variable slope (four parameters) for curve fitting and IC50 values were determined using XLfit.
# [3] = Dynamic vapor sorption (DVS) of crystalline form; format: physicochemical; settings: crystalline form (Form 1)
# Method: (§2) The crystalline form of Compound 1 is highly crystalline and has a needle/thin rod-like morphology. FIG. 2A and 2B are polarized light microscopy (PLM) images of this crystalline form of Compound 1. Additionally, the crystalline form of Compound 1 was characterized by PXRD, DSC, TGA, ^1H-NMR, HPLC, and DVS. The solvent used for the ^1H-NMR was methanol.
# (§3) The crystalline form has a high melting temperature (˜177-180° C.) with no thermal degradation until >210° C. The crystalline form appears to be an anhydrous form and is non-hygroscopic. The crystalline form was analyzed by PXRD before and after DVS.
# [4] = Thermal stability (DSC/TGA) of crystalline form; format: physicochemical; settings: crystalline form (Form 1)
# Method: as §2, §3
# [5] = system: phospho-AKT (pAKT) in T47D (H1047R) cells; assay: pAKT alphaLISA Surefire Ultra AKT 1/2/3 (pS473) assay in T47D cells; format: cell-based; settings: Homo sapiens, 24 hr treatment
# Method: as §1
# To prepare assay plates for pAKT alphaLISA assays, cells were trypsinized, resuspended in fresh media, and viable cells were counted utilizing trypan blue exclusion. Prior to seeding, cells were washed with PBS and resuspended in HBSS (Gibco, #14025092). […]
# Immediately after seeding, cells were dosed using an Echo Liquid Handler (Beckman Coulter) with compounds at a 10.4 μm starting concentration and serially diluted (1:4) for a total of 10concentrations. […] Plates were then imaged the following day using a CLARIOstar microplate reader (BMG Labtech, Germany).
# Percent of control values were calculated by subtracting the average signal from the positive control (alpelisib) treated wells from all treated wells (including DMSO control wells) and then divided by the average signal from the vehicle DMSO treated control wells. Percent of vehicle control values were plotted as log (inhibitor) vs. response-Variable slope (four parameters) for curve fitting and IC50 values were determined using XLfit.
structure (smiles),measurement,setting,value
"Cc1cc([C@@H](C)Nc2ccc(Cl)nc2C(=O)O)c2nc(N3CCOCC3)c(C#N)nc2c1 [Compound 1, (R)-6-chloro-3-((1-(2-cyano-7-methyl-3-morpholinoquinoxalin-5-yl)ethyl)amino) picolinic acid]",solubility,"[1]; organic solvent or mixture, thermodynamic from solid, 1,4-Dioxane",> 221 mg/mL
same,solubility,"[1]; organic solvent or mixture, thermodynamic from solid, 2-MeTHF",> 230 mg/mL
same,solubility,"[1]; organic solvent or mixture, thermodynamic from solid, ACN",> 202 mg/mL
same,solubility,"[1]; organic solvent or mixture, thermodynamic from solid, DCM",> 192 mg/mL
same,solubility,"[1]; organic solvent or mixture, thermodynamic from solid, DMF",> 216 mg/mL
same,solubility,"[1]; organic solvent or mixture, thermodynamic from solid, DMSO",> 241 mg/mL
same,solubility,"[1]; organic solvent or mixture, thermodynamic from solid, EtOAc",> 204 mg/mL
same,solubility,"[1]; organic solvent or mixture, thermodynamic from solid, EtOH",43 to 53.7 mg/mL
same,solubility,"[1]; organic solvent or mixture, thermodynamic from solid, IPA",14.4 to 16.8 mg/mL
same,solubility,"[1]; organic solvent or mixture, thermodynamic from solid, IPAc",> 221 mg/mL
same,solubility,"[1]; organic solvent or mixture, thermodynamic from solid, MEK",> 191 mg/mL
same,solubility,"[1]; organic solvent or mixture, thermodynamic from solid, MIBK",> 189 mg/mL
same,solubility,"[1]; organic solvent or mixture, thermodynamic from solid, MTBE",102 to 221 mg/mL
same,solubility,"[1]; organic solvent or mixture, thermodynamic from solid, MeOH",> 210 mg/mL
same,solubility,"[1]; organic solvent or mixture, thermodynamic from solid, THF",> 215 mg/mL
same,solubility,"[1]; organic solvent or mixture, thermodynamic from solid, acetone",> 230 mg/mL
same,solubility,"[1]; organic solvent or mixture, thermodynamic from solid, heptane",< 1.3 mg/mL
same,solubility,"[1]; organic solvent or mixture, thermodynamic from solid, nPA",47.1 to 58.9 mg/mL
same,solubility,"[1]; organic solvent or mixture, thermodynamic from solid, toluene",> 204 mg/mL
same,solubility,"[1]; thermodynamic from solid, water",< 1.3 mg/mL
same,IC50,[2],24 nM
same,Form change by PXRD before and after DVS,[3],no form change
same,Hygroscopicity (DVS),[3],non-hygroscopic
same,DVS weight gain at 80% RH,[3]; 80% RH,0.11%
same,Temperature until which no thermal degradation,[4],> 210 °C
same,IC50,[5],1.8 nM
